Patent US20240285627A1, “DRUG COMBINATION OF FAK INHIBITOR AND IMMUNOGENIC CELL DEATH INDUCER AND USE THEREOF” (INXMED (NANJING) CO., LTD., priority 2022, published 2024)

Key:
Format in all cases: cell-based
[1] = system: Mouse colon cancer CT26 cells; assay: Induction of immunogenic cell death targets by Crizotinib and IN10018 in CT26 cells (Example 7); settings: CT26, 48 hours; IN10018 5 μM, Crizotinib 3 μM
Procedure: CT26 cells were cultured in monolayer in vitro, and the culture conditions were: RPMI-1640 medium with 10% fetal bovine serum, 37° C. and 5% CO2. Trypsin was used for routine digestion and passage treatment two or three times a week. When the cells were in exponential growth period and the adherent confluence reached 80%-90%, the cells were collected and plated.
CT26 cells were digested with trypsin, then collected and counted. According to the counting results, the cells were diluted with RPMI-1640+10% FBS, and the dilution concentration was 50,000 cells per ml. Then, the cells were plated on 24-well culture plates, and 1 ml of cell suspension (50,000 cells) was laid in each well. After plating, the cells were cultured in 37° C. and 5% CO2 incubator. […]
After the cells were washed twice with flow buffer (DPBS+2% FBS), the cells in each group were divided into two parts on average, one of which was added with 0.5 μl of AF647 anti-Calreticulin antibody in each well, then mixed well, and incubated in the dark for 20 minutes at 4° C. […] The cells were cultured at room temperature in the dark for 15 minutes, and then analyzed by flow cytometry.
Data analysis: After the assay, the cell positive rate was analyzed by Flowjo(V10) software.

[2] = system: Mouse colon cancer CT26 cells; assay: CT26 cells with IN10018 and Lurbinectedin: microscope and flow cytometry for CRT / Annexin V (Example 2); settings: CT26, 48 hours; IN10018 5 μM, Lurbinectedin 0.00142 μM
Procedure: Mouse colon cancer CT26 cells (Insitute of Biochemistry and Cell Biology) were cultured with RPMI-1640 (Shanghai Basalmedia, classification number: L210KJ, batch number: F210916)+10% FBS (Gibco, classification number: 10099-141c, batch number: 2158737cp) and passaged twice. When the cells were in good condition, the culture solution was placed in a 24-well plate. After the cells were spread for 24 hours, four groups were set up, wherein the first group was a control group, and the culture medium was added; the second group was IN10018 with a concentration of 5 μM; the third group was Lurbinectedin (DC chemicals, classification number: DC12502, batch number: DC1250203) with a concentration of 0.00142 μM; and the fourth group was IN10018 (5 μM) combined with Lurbinectedin (0.00142 μM). The drugs were mixed and the mixture was cultured in a 5% CO2 incubator at 37° C. for 48 hours.
After 48 hours of drug action, the cells were observed under a microscope and photographed, and the photos were kept. Then the cells were collected, subjected to flow analysis, and washed twice with flow buffer (PBS+2% FBS). 0.5 μl of AF647 anti-Calreticulin antibody (abcam, classification number: ab196159, batch number: CR33676773) was added to each well and fully mixed. […] The mixture was cultured at room temperature in the dark for 15 minutes, and then analyzed by flow cytometry.

[3] = system: Mouse colon cancer CT26 cells; assay: Proliferation of CT26 cells, CCK8, Lurbinectedin with or without IN10018 (Example 1); settings: 72 hours, combination group: 6 μM IN10018 added to each well
Procedure: Mouse colon cancer CT26 cells (Insitute of Biochemistry and Cell Biology) were cultured with RPMI-1640 (Shanghai Basalmedia, classification number: L210KJ, batch number: F210916)+10% FBS (Gibco, classification number: 10099-141c, batch number: 2158737cp) and passaged twice. When the cells were in good condition, the culture solution was placed in a 96-well plate with 3000 cells/well. After the cells were spread for 24 hours, a culture medium containing Lurbinectedin (DC chemicals, classification number: DC12502, batch number: DC1250203) was added. 10 drug action concentrations were set, wherein the first concentration was 0.1 μM, which was serially diluted 4 times, and the last concentration was a control with a drug concentration of 0. Each drug concentration was set in triplicate. At the same time, another group of cells was established with the same drug concentration as the above method. The difference was that 6 μM IN10018 was added to each well. The drugs were mixed and the mixture was cultured in a 5% CO2 incubator at 37° C. for 72 hours.
After 72 hours of drug action, the cells were observed under a microscope, and 10 μl of CCK8 detection reagent (Cellorlab, classification number: CX001M, batch number: 2571100) was added to each well. […] Then the plate was read with a microplate reader OD450 ([…]).

| SMILES | cell state under a microscope (cell death; cell viability) [1] | cell state under a microscope [2] | IC50 [3] [nM] |
| --- | --- | --- | --- |
| C[C@@H](Oc1cc(-c2cnn(C3CCNCC3)c2)cnc1N)c1c(Cl)ccc(F)c1Cl [Crizotinib] | cell death was obvious | – | – |
| COc1ccc2[nH]c3c(c2c1)CCN[C@]31CS[C@@H]2c3c(OC(C)=O)c(C)c4c(c3[C@H](COC1=O)N1[C@@H]2[C@H]2c3c(cc(C)c(OC)c3O)C[C@@H]([C@@H]1O)N2C)OCO4 [Lurbinectedin] | – | poor | 0.71 |
